Experiments:
rats = settings: in rats; cited from earlier work
[1] = tested on: transgenic Drosophila melanogaster with an inducible tau; assay: Timed crawl test in transgenic flies with RU-486-inducible human tau; format: in vivo; settings: RU-486-treated tau transgenic flies, crawl tests twice each week as flies aged (FIG. 1A, FIG. 2)
Experimental: FIGS. 1A and 1B show typical screens of transgenic Drosophila melanogaster with an inducible tau (FIG. 1A) or Abeta (FIG. 1B), which greatly reduces neural function with age. To assay for fly behavior changes as neural dysfunction progresses, timed crawl tests in which the time it takes individual flies to climb to the top of a test vial were performed twice each week as the flies aged. Select compositions were screened for use on the transgenic flies using the genetically targeted substances believed to act on longevity genes. Different dose concentrations were tested. Two hundred flies (1 fly of each sex in each of 100 vials) for each test condition were used. RU-486 was added to all fly samples except the untreated controls named Untreated (dashed blue line) and the A+P+T Control) about 4-5 days after flies were placed in vials. The first crawl tests were started about 9-10 days after insertion into vials and 5-6 days after RU addition (see FIGS. 1A and 1B). In Untreated Controls (dashed blue line), young flies typically crawl to the top of the vial quickly in 7-10 seconds, while older flies have progressively longer crawl times of up to 40 seconds or more with advancing age. The RU Controls (solid blue line) were treated with RU-486 without any helper substance and therefore have poor crawling tests and die early at 7 weeks (tau in FIG. 1A) or 5 weeks (Abeta in FIG. 1B). […]

[2] = tested on: transgenic Drosophila melanogaster with an inducible Abeta; assay: Timed crawl test in transgenic flies with RU-486-inducible human Abeta; format: in vivo; settings: RU-486-treated Abeta transgenic flies (FIG. 1B)
Experimental: To assay for fly behavior changes as neural dysfunction progresses, timed crawl tests in which the time it takes individual flies to climb to the top of a test vial were performed twice each week as the flies aged. Select compositions were screened for use on the transgenic flies using the genetically targeted substances believed to act on longevity genes. Different dose concentrations were tested. Two hundred flies (1 fly of each sex in each of 100 vials) for each test condition were used. RU-486 was added to all fly samples except the untreated controls named Untreated (dashed blue line) and the A+P+T Control) about 4-5 days after flies were placed in vials. The first crawl tests were started about 9-10 days after insertion into vials and 5-6 days after RU addition (see FIGS. 1A and 1B). […] The single substances and substance combinations are shown by the one letter codes: A=Astragalus, P=Pterocarpus, T=L-Theanine, G=Genistein, B=Berberine, L=Lithium, and S=Selenium.
To assay for fly neural functional decline with age as Abeta, tau, or the Park gene is induced, crawl times were used to test substances initially picked from the genomics work.

Row | Compound | neuroprotection (rats) | crawl time / delay of neuronal dysfunction induced by human tau expression [1] | crawl time / protection against dementia induced by human Abeta expression [2]
1 | CCNC(=O)CC[C@H](N)C(=O)O [L-Theanine, gamma-glutamylethylamide] | neuroprotective | – | –
2 | CC12CC3CC(C)(C1)CC(N)(C3)C2 [Mementin, reference compound] | – | works very well | –
3 | [Se] [Selenium] | – | can protect against dementia | can protect against dementia
